We go through nine compounds from PubChem BioAssay (NCI).

Some test systems named below: SNB-75 CNS; A549 NSCLC; NCI/ADR-RES ovarian; NCI-H522 lung; HCC-2998 colon; K-562 leukemia; KM12 colon; SN12C renal; UO-31 renal; EKVX NSCLC.
Common to all, as to assay: growth of human tumour cells (NCI), 48 h

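Compound exposure: 48 hours, 5 concentrations, 96-well plates. GI50 = concentration required for 50% inhibition of growth. The concentration for full growth arrest is given as TGI.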

For the compound `Cc1cc2cc3cc(C)c(N(C)C)cc3nc2cc1N(C)C`, the GI50 in the assay with SNB-75 CNS was 2350 nM; in the assay with A549 NSCLC, 3000 nM; in the assay with NCI/ADR-RES ovarian, 31.7 µM; with NCI-H522 lung it was 3.76 µM; in the assay on HCC-2998 colon, 3.61 µM; in the assay on K-562 leukemia, 4790 nM. The GI50 with KM12 colon was 1660 nM; with SN12C renal, 3.22 µM; with UO-31 renal it was 6 µM. Also, the TGI with SNB-75 CNS was 20.1 µM; in the assay with A549 NSCLC it was greater than 100 µM; in the assay on NCI/ADR-RES ovarian, greater than 100 µM; in the assay with NCI-H522 lung, 30 µM; in the assay with HCC-2998 colon, 14.6 µM; in the assay with K-562 leukemia, greater than 100 µM. The TGI in the assay on KM12 colon was 6.22 µM; in the assay with SN12C renal it was 29.3 µM; in the assay on UO-31 renal it was greater than 100 µM.
As for `CS(=O)CCCCCN=C=S` (configuration not stated), the GI50 in the assay on SNB-75 CNS is 3010 nM; in the assay on A549 NSCLC it was 7520 nM; with NCI/ADR-RES ovarian, 4.72 µM; in the assay on NCI-H522 lung, 1.99 µM; in the assay on EKVX NSCLC it was 10.4 µM; with HCC-2998 colon, 13.9 µM. Besides, the GI50 in the assay with KM12 colon is 3330 nM; in the assay with SN12C renal, 3.44 µM; in the assay with UO-31 renal it was 4 µM. In addition, the TGI in the assay with SNB-75 CNS stood at 16.5 µM; in the assay on A549 NSCLC, 24.2 µM; with NCI/ADR-RES ovarian, 22 µM; in the assay with NCI-H522 lung it was 5.87 µM; with EKVX NSCLC, 24.8 µM; with HCC-2998 colon it was 28.8 µM. Also, the TGI in the assay with KM12 colon was found to be 13 µM; in the assay on SN12C renal, 11.4 µM; with UO-31 renal, 17.2 µM.
`CC(=O)N1CC(Nc2ccc(OC(F)(F)F)cc2)=CC1=O`: the GI50 with SNB-75 CNS is 1590 nM; in the assay on A549 NSCLC, 2010 nM; in the assay with NCI/ADR-RES ovarian, 0.781 µM; with NCI-H522 lung, 1.8 µM; in the assay with HCC-2998 colon, 3.22 µM; with K-562 leukemia, 526 nM. Further, the GI50 is 562 nM in the assay with KM12 colon, 7.95 µM in the assay on SN12C renal and 19.4 µM with UO-31 renal. For the same compound, the TGI was 7.59 µM with SNB-75 CNS; greater than 100 µM in the assay on A549 NSCLC; 5.15 µM in the assay with NCI/ADR-RES ovarian; 5.75 µM in the assay with NCI-H522 lung; 53.2 µM in the assay on HCC-2998 colon; greater than 100 µM with K-562 leukemia. Besides, the TGI in the assay on KM12 colon is 25.1 µM; in the assay on SN12C renal, greater than 100 µM; in the assay with UO-31 renal, greater than 100 µM.
Turning to `COc1ccc(-c2ccc(/C=N/n3c(COc4ccccc4Cl)nn(CN4CCN(C)CC4)c3=S)o2)c([N+](=O)[O-])c1`, the GI50 in the assay with SNB-75 CNS is 20300 nM; in the assay with A549 NSCLC, 14100 nM; in the assay on NCI/ADR-RES ovarian, 18.5 µM; in the assay on NCI-H522 lung, 29.5 µM; with EKVX NSCLC, 21.5 µM; with HCC-2998 colon it was 14.5 µM. In addition, the GI50 in the assay with KM12 colon was 11900 nM; with SN12C renal it was 17.9 µM; in the assay on UO-31 renal it was 30.1 µM. The TGI in the assay with SNB-75 CNS is 77.3 µM; in the assay on A549 NSCLC it was 36.7 µM; in the assay with NCI/ADR-RES ovarian it was 41.6 µM; in the assay on NCI-H522 lung, greater than 100 µM; with EKVX NSCLC, 70.5 µM; with HCC-2998 colon, 27.7 µM. Moreover, the values for the TGI in the assay with KM12 colon, with SN12C renal and in the assay on UO-31 renal were 31.7 µM, 35.2 µM and greater than 100 µM, respectively.
On to `COc1cc2c(cc1OCCOS(C)(=O)=O)N=C[C@@H]1CCCN1C2=O`, for which the TGI in the assay on SNB-75 CNS is greater than 100 µM; in the assay on A549 NSCLC, greater than 100 µM; in the assay with NCI/ADR-RES ovarian it was 26.7 µM; with NCI-H522 lung, 30.1 µM; in the assay with EKVX NSCLC, greater than 100 µM; with HCC-2998 colon, greater than 100 µM. Besides, the TGI with KM12 colon was greater than 100 µM; in the assay with SN12C renal, greater than 100 µM; in the assay with UO-31 renal, 33.1 µM. Besides, the GI50 in the assay with NCI/ADR-RES ovarian is 13.5 µM; in the assay with NCI-H522 lung it was 10.9 µM; in the assay with UO-31 renal it was 15.2 µM.
In the case of `Cc1ccc(C2NC(=S)NC3=C2CCOc2c3ccc3ccccc23)cc1` (configuration not stated), the GI50 in the assay with SNB-75 CNS was greater than 100000 nM; in the assay on A549 NSCLC, greater than 100000 nM; in the assay with NCI/ADR-RES ovarian, 96.5 µM; in the assay on NCI-H522 lung, greater than 100 µM; in the assay on HCC-2998 colon, 10.8 µM; with K-562 leukemia it was 4360 nM. For the same compound, the GI50 was 8250 nM in the assay with KM12 colon, greater than 100 µM in the assay on SN12C renal and greater than 100 µM with UO-31 renal. The TGI with SNB-75 CNS, with A549 NSCLC, in the assay on NCI/ADR-RES ovarian, in the assay with NCI-H522 lung, in the assay with HCC-2998 colon and in the assay with K-562 leukemia was greater than 100 µM in each case. Moreover, the TGI with KM12 colon, with SN12C renal and in the assay with UO-31 renal was greater than 100 µM in each case.
Consider `CCN(CC)CCCNc1cccc2c(SCc3ccccc3)ccnc12`, for which the GI50 is 1600 nM in the assay with SNB-75 CNS; 1730 nM in the assay on A549 NSCLC; 1.96 µM in the assay on NCI/ADR-RES ovarian; 1.51 µM with NCI-H522 lung; 2.24 µM with EKVX NSCLC; 1.73 µM with HCC-2998 colon. In addition, the GI50 is 1750 nM with KM12 colon, 1.81 µM in the assay with SN12C renal and 0.828 µM with UO-31 renal. The TGI in the assay on SNB-75 CNS was 3.22 µM; in the assay with A549 NSCLC, 3.33 µM; in the assay with NCI/ADR-RES ovarian, 5.6 µM; in the assay on NCI-H522 lung, 3.1 µM; in the assay with EKVX NSCLC, 6.71 µM; in the assay with HCC-2998 colon, 3.2 µM. For the same compound, the TGI in the assay with KM12 colon came out at 3.38 µM; in the assay with SN12C renal it was 12.6 µM; with UO-31 renal it was 2.44 µM.
Consider `CN1CCCNc2c(c(=O)c2=O)NCCCN(C)CCCNc2c(c(=O)c2=O)NCCCN(C)CCCNc2c(c(=O)c2=O)NCCCN(C)CCCNc2c(c(=O)c2=O)NCCCN(C)CCCNc2c(c(=O)c2=O)NCCCN(C)CCCNc2c(c(=O)c2=O)NCCCN(C)CCCNc2c(c(=O)c2=O)NCCC1`, for which the GI50 with SNB-75 CNS is 9480 nM; in the assay on A549 NSCLC, 6050 nM; in the assay with NCI/ADR-RES ovarian, 5.96 µM; in the assay on NCI-H522 lung, 6.91 µM; in the assay on EKVX NSCLC, 5.54 µM; with HCC-2998 colon it was 7.18 µM. Besides, the GI50 is 3630 nM in the assay with KM12 colon, 1.34 µM in the assay with SN12C renal and 2.01 µM with UO-31 renal. Moreover, the TGI in the assay on SNB-75 CNS is 19.3 µM; in the assay with A549 NSCLC, greater than 50 µM; in the assay with NCI/ADR-RES ovarian, 26.7 µM; in the assay on NCI-H522 lung it was greater than 50 µM; in the assay with EKVX NSCLC, 15.8 µM; in the assay on HCC-2998 colon, 22.1 µM. Also, the results for the TGI with KM12 colon, with SN12C renal and with UO-31 renal were 18 µM, 14.2 µM and 9.19 µM, respectively.
Turning to `CN(C)c1ccc(C(=C2C=CC(=[N+](C)C)C=C2)c2ccc(N(C)C)cc2)cc1` (tested in a mixture with another compound), the GI50 with SNB-75 CNS was 72.4 nM; in the assay with A549 NSCLC it was 32.6 nM; in the assay with NCI/ADR-RES ovarian it was 0.912 µM; in the assay with EKVX NSCLC, 0.0725 µM; with K-562 leukemia it was 47 nM; in the assay with KM12 colon, 37.9 nM. Moreover, the TGI in the assay with SNB-75 CNS is 0.54 µM; in the assay with A549 NSCLC it was 0.688 µM; with NCI-H522 lung, 1.06 µM; with EKVX NSCLC it was 6.45 µM; with HCC-2998 colon, 1.53 µM; with K-562 leukemia, 2.86 µM. For the same compound, the TGI in the assay on KM12 colon worked out at 0.172 µM; in the assay on UO-31 renal it was 1.39 µM.
